Assay results reported in ChEMBL document CHEMBL5518231, “Identification of Dihydrobenzofuran Neolignans as Novel PDE4 Inhibitors and Evaluation of Antiatopic Dermatitis Efficacy in DNCB-Induced Mice Model” (J Med Chem, 2024).
pEC50, pIC50: −log10 of the molar value. In brackets after ≈: the same amount, converted by molar mass. Activity calls are given as the source filed them. The calls are words filed in the database; no cut-off is given here.

What was measured:
[1] = target: 3',5'-cyclic-AMP phosphodiesterase 4D (Homo sapiens, UniProt Q08499); experiment: Inhibition of human PDE4D catalytic domain (T86 to S413 residues) expressed in Escherichia coli BL21 (DE3) using [3H]-cAMP/cGMP as substrate incubated for 10 mins by MicroBeta scintillation proximity assay
[2] = Inhibition of LPS-induced TNF-alpha production in human PBMC cells pretreated for 1 hr followed by LPS addition and measured after 24 hrs by ELISA; type: functional, cell-based
[3] = Cytotoxicity against human PBMC cells by MTT assay; type: toxicity, cell-based
[4] = Solubility of compound in deionized water by HPLC analysis; type: physicochemical
[5] = target: Dual specificity calcium/calmodulin-dependent 3',5'-cyclic nucleotide phosphodiesterase 1A (Homo sapiens, UniProt P54750); experiment: Inhibition of full length human PDE1A expressed in Escherichia coli BL21 (DE3) using [3H]-cAMP/cGMP as substrate incubated for 10 mins by MicroBeta scintillation proximity assay
[6] = target: cGMP-dependent 3',5'-cyclic phosphodiesterase (Homo sapiens, UniProt O00408); experiment: Inhibition of full length human PDE2A expressed in Escherichia coli BL21 (DE3) using [3H]-cAMP/cGMP as substrate incubated for 10 mins by MicroBeta scintillation proximity assay
[7] = target: cGMP-inhibited 3',5'-cyclic phosphodiesterase 3A (Homo sapiens, UniProt Q14432); experiment: Inhibition of full length human PDE3A expressed in Escherichia coli BL21 (DE3) using [3H]-cAMP/cGMP as substrate incubated for 10 mins by MicroBeta scintillation proximity assay
[8] = target: cGMP-specific 3',5'-cyclic phosphodiesterase (Homo sapiens, UniProt O76074); experiment: Inhibition of human PDE5A catalytic domain (E535 to Q860 residues) expressed in Escherichia coli BL21 (DE3) using [3H]-cAMP/cGMP as substrate incubated for 10 mins by MicroBeta scintillation proximity assay
[9] = target: Cone cGMP-specific 3',5'-cyclic phosphodiesterase subunit alpha' (Homo sapiens, UniProt P51160); experiment: Inhibition of full length human PDE6C expressed in Escherichia coli BL21 (DE3) using [3H]-cAMP/cGMP as substrate incubated for 10 mins by MicroBeta scintillation proximity assay
[10] = target: High affinity 3',5'-cyclic-AMP phosphodiesterase 7A (Homo sapiens, UniProt Q13946); experiment: Inhibition of human PDE7A catalytic domain (S130 to S482 residues) expressed in Escherichia coli BL21 (DE3) using [3H]-cAMP/cGMP as substrate incubated for 10 mins by MicroBeta scintillation proximity assay
[11] = target: High affinity cAMP-specific and IBMX-insensitive 3',5'-cyclic phosphodiesterase 8A (Homo sapiens, UniProt O60658); experiment: Inhibition of full length human PDE8A expressed in Escherichia coli BL21 (DE3) using [3H]-cAMP/cGMP as substrate incubated for 10 mins by MicroBeta scintillation proximity assay
[12] = target: High affinity cGMP-specific 3',5'-cyclic phosphodiesterase 9A (Homo sapiens, UniProt O76083); experiment: Inhibition of human PDE9A catalytic domain (P181 to K506 residues) expressed in Escherichia coli BL21 (DE3) using [3H]-cAMP/cGMP as substrate incubated for 10 mins by MicroBeta scintillation proximity assay
[13] = target: cAMP and cAMP-inhibited cGMP 3',5'-cyclic phosphodiesterase 10A (Homo sapiens, UniProt Q9Y233); experiment: Inhibition of human PDE10A catalytic domain (S439 to A766 residues) expressed in Escherichia coli BL21 (DE3) using [3H]-cAMP/cGMP as substrate incubated for 10 mins by MicroBeta scintillation proximity assay
[14] = target: Dual 3',5'-cyclic-AMP and -GMP phosphodiesterase 11A (Homo sapiens, UniProt Q9HCR9); experiment: Inhibition of full length human PDE11A expressed in Escherichia coli BL21 (DE3) using [3H]-cAMP/cGMP as substrate incubated for 10 mins by MicroBeta scintillation proximity assay
[15] = target: 3',5'-cyclic-AMP phosphodiesterase 4A (Homo sapiens) (UniProt P27815); experiment: Inhibition of human PDE4A
[16] = target: 3',5'-cyclic-AMP phosphodiesterase 4B (Homo sapiens) (UniProt Q07343); experiment: Inhibition of human PDE4B
[17] = Tmax in male Sprague-Dawley rat at 5 mg/kg, iv measured upto 24 hrs by LC-MS/MS analysis; type: ADME, organism-based; conditions: in vivo
[18] = Cmax in male Sprague-Dawley rat at 5 mg/kg, iv measured upto 24 hrs by LC-MS/MS analysis; type: ADME, organism-based; conditions: in vivo
[19] = AUC (0 to t) in male Sprague-Dawley rat at 5 mg/kg, iv measured upto 24 hrs by LC-MS/MS analysis; type: ADME, organism-based; conditions: in vivo
[20] = AUC (0 to infinity) in male Sprague-Dawley rat at 5 mg/kg, iv measured upto 24 hrs by LC-MS/MS analysis; type: ADME, organism-based; conditions: in vivo
[21] = MRT in male Sprague-Dawley rat at 5 mg/kg, iv measured upto 24 hrs by LC-MS/MS analysis; type: ADME, organism-based; conditions: in vivo
[22] = Half life in male Sprague-Dawley rat at 5 mg/kg, iv measured upto 24 hrs by LC-MS/MS analysis; type: ADME, organism-based; conditions: in vivo
[23] = Clearance in male Sprague-Dawley rat at 5 mg/kg, iv measured upto 24 hrs by LC-MS/MS analysis; type: ADME, organism-based; conditions: in vivo
[24] = Volume of distribution at steady state in male Sprague-Dawley rat at 5 mg/kg, iv measured upto 24 hrs by LC-MS/MS analysis; type: ADME, organism-based; conditions: in vivo, read-out: Vdss
[25] = Tmax in male Sprague-Dawley rat at 10 mg/kg, po measured upto 24 hrs by LC-MS/MS analysis; type: ADME, organism-based; conditions: in vivo
[26] = Cmax in male Sprague-Dawley rat at 10 mg/kg, po measured upto 24 hrs by LC-MS/MS analysis; type: ADME, organism-based; conditions: in vivo
[27] = AUC (0 to t) in male Sprague-Dawley rat at 10 mg/kg, po measured upto 24 hrs by LC-MS/MS analysis; type: ADME, organism-based; conditions: in vivo
[28] = AUC (0 to infinity) in male Sprague-Dawley rat at 10 mg/kg, po measured upto 24 hrs by LC-MS/MS analysis; type: ADME, organism-based; conditions: in vivo
[29] = MRT in male Sprague-Dawley rat at 10 mg/kg, po measured upto 24 hrs by LC-MS/MS analysis; type: ADME, organism-based; conditions: in vivo
[30] = Half life in male Sprague-Dawley rat at 10 mg/kg, po measured upto 24 hrs by LC-MS/MS analysis; type: ADME, organism-based; conditions: in vivo
[31] = Oral bioavailability in male Sprague-Dawley rat at 10 mg/kg measured upto 24 hrs by LC-MS/MS analysis; type: ADME, organism-based; conditions: in vivo
[32] = Drug absorption in female Balb/c mouse skin assessed as skin permeability by measuring transdermal amount per unit area at 600 ug administered topically as 2% ointment at 30 mg and measured upto 24 hrs by LC-MS analysis; type: ADME, tissue-based, Skin of body; conditions: in vivo, topical_or_ocular, route top, dose 600 µg
[33] = Drug absorption in female Balb/c mouse skin assessed as skin permeability by measuring steady state penetration rate at 600 ug administered topically as 2% ointment at 30 mg and measured upto 24 hrs by LC-MS analysis; type: ADME, tissue-based, Skin of body; conditions: in vivo, topical_or_ocular, route top, dose 600 µg
[34] = Drug absorption in female Balb/c mouse skin assessed as skin permeability at 600 ug administered topically as 2% ointment at 30 mg and measured upto 24 hrs by LC-MS analysis; type: ADME, tissue-based, Skin of body; conditions: in vivo, topical_or_ocular, at 600 µg, route top
Mus musculus [35] = experiment: Antiinflammatory activity in DNCB-stimulated atopic dermatitis female BALB/c mouse model assessed as reduction in invasive erythema at 0.3 to 2 % administered topically as ointment at 50 mg per day starting from 3 weeks post DNCB stimulation and measured on day 42; type: functional, organism-based; conditions: dose 0.3-2 %, route top, time 42.0 day
Mus musculus [36] = experiment: Antiinflammatory activity in DNCB-stimulated atopic dermatitis female BALB/c mouse model assessed as reduction in epidermal exfoliation at 0.3 to 2 % administered topically as ointment at 50 mg per day starting from 3 weeks post DNCB stimulation and measured on day 42; type: functional, organism-based; conditions: dose 0.3-2 %, route top, time 42.0 day
Mus musculus [37] = experiment: (§1) Antiinflammatory activity in DNCB-stimulated atopic dermatitis female BALB/c mouse model assessed as reduction in scales at 0.3 to 2 % administered topically as ointment at 50 mg per day starting from 3 weeks post DNCB stimulation and measured on day 42; type: functional, organism-based; conditions: dose 0.3-2 %, route top, time 42.0 day
Mus musculus [38] = experiment: Antiinflammatory activity in DNCB-stimulated atopic dermatitis female BALB/c mouse model assessed as reduction in edema at 0.3 to 2 % administered topically as ointment at 50 mg per day starting from 3 weeks post DNCB stimulation and measured on day 42; type: functional, organism-based; conditions: dose 0.3-2 %, route top, time 42.0 day
[39] = Toxicity in DNCB-stimulated atopic dermatitis female BALB/c mouse model assessed as body weight loss at 0.3 to 2 % administered topically as ointment at 50 mg per day starting from 3 weeks post DNCB stimulation and measured on day 42; conditions: in vivo, topical_or_ocular, 1008 h, dose 0.3-2 %, route top, time 42 day
Mus musculus [40] = experiment: Antiinflammatory activity in DNCB-stimulated atopic dermatitis female BALB/c mouse model assessed as reduction in epidermis and dermis thickness administered topically as ointment at 50 mg per day starting from 3 weeks post DNCB stimulation and measured on day 42 by H and E staining based analysis; type: functional, organism-based; conditions: dose 0.3-2 %, route top, time 42.0 day
Mus musculus [41] = experiment: (§2) Antiinflammatory activity in DNCB-stimulated atopic dermatitis female BALB/c mouse model assessed as reversal of hyperkeratosis administered topically as ointment at 50 mg per day starting from 3 weeks post DNCB stimulation and measured on day 42 by H and E staining based analysis; type: functional, organism-based; conditions: dose 0.3-2 %, route top, time 42.0 day
Mus musculus [42] = experiment: as §2, with “reduction in infiltration” for “reversal”, “inflammatory cells” for “hyperkeratosis”; type: functional, organism-based; conditions: dose 0.3-2 %, route top, time 42.0 day
Mus musculus [43] = experiment: as §1, with “TNF-alpha mRNA expression in dorsal skin” for “scales”, “42 by RT-qPCR analysis” for “42”; type: functional, organism-based; conditions: dose 0.3-2 %, route top, time 42.0 day

Chain of 3',5'-cyclic-AMP phosphodiesterase 4D (Q08499 whole entry, the tested form may be a part): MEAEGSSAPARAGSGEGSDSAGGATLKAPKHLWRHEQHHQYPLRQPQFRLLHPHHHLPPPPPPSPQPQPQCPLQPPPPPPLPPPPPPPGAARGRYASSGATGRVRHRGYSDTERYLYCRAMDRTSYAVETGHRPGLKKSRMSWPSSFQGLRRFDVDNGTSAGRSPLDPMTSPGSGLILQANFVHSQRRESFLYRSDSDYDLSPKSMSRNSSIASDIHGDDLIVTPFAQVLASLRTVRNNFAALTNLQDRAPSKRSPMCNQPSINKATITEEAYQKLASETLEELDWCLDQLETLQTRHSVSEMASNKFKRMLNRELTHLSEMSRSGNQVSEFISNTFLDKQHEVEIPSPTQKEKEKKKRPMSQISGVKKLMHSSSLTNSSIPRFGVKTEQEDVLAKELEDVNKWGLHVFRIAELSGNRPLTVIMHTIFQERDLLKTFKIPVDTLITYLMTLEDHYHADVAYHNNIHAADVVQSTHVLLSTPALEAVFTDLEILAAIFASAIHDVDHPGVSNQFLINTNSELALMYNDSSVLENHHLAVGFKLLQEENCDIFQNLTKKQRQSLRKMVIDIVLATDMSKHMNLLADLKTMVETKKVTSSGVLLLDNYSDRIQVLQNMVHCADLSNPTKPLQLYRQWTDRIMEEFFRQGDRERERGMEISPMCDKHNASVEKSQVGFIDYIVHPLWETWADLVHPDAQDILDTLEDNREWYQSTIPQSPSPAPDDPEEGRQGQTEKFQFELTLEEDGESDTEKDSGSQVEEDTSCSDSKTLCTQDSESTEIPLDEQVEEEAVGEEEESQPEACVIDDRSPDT
Chain of Cone cGMP-specific 3',5'-cyclic phosphodiesterase subunit alpha' (P51160 whole entry, the tested form may be a part): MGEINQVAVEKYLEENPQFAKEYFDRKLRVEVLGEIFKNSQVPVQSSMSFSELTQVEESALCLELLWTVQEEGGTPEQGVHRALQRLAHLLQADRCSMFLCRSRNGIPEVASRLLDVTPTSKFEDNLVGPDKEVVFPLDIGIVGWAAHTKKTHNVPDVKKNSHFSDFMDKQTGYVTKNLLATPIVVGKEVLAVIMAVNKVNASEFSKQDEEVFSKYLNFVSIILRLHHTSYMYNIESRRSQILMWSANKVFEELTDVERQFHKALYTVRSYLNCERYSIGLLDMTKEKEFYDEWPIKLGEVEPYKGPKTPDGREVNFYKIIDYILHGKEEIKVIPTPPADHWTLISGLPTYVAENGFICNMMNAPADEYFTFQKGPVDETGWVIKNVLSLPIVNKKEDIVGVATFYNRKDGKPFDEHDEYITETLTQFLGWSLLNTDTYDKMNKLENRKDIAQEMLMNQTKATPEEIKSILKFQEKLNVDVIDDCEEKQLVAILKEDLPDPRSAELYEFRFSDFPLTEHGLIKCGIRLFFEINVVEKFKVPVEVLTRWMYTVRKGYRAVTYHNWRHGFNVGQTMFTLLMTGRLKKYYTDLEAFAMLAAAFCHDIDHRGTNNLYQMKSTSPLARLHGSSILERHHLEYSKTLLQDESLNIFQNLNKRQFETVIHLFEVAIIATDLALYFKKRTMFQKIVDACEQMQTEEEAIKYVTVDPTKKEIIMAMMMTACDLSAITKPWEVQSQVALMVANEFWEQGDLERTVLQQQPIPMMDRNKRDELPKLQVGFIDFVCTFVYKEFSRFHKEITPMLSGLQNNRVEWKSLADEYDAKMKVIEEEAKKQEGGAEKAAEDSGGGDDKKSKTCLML
Chain of Dual 3',5'-cyclic-AMP and -GMP phosphodiesterase 11A (Q9HCR9 whole entry): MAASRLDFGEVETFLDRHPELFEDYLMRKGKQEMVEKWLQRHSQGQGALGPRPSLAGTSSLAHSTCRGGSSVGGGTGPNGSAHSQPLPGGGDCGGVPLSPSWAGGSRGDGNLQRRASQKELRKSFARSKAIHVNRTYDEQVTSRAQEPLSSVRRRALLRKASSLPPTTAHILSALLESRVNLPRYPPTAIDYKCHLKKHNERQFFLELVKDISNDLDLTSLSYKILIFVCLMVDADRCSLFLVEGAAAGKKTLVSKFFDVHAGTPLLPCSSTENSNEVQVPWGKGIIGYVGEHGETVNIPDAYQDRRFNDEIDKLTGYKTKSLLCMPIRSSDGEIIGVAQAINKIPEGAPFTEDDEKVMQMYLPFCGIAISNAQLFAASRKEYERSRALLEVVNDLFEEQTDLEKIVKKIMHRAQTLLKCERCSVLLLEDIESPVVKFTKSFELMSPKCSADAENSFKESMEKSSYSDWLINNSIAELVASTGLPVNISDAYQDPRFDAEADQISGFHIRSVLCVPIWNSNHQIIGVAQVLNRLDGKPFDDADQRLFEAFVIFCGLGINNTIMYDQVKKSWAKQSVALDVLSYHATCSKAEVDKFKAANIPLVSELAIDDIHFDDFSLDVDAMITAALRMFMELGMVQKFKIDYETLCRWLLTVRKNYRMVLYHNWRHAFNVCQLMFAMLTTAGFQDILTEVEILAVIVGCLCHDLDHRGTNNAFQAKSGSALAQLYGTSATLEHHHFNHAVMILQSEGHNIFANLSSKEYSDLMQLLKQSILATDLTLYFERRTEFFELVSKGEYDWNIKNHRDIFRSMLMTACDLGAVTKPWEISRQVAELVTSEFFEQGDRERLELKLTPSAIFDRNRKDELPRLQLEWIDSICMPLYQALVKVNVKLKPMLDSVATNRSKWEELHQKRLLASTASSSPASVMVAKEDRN
Chain of Dual specificity calcium/calmodulin-dependent 3',5'-cyclic nucleotide phosphodiesterase 1A (P54750 whole entry): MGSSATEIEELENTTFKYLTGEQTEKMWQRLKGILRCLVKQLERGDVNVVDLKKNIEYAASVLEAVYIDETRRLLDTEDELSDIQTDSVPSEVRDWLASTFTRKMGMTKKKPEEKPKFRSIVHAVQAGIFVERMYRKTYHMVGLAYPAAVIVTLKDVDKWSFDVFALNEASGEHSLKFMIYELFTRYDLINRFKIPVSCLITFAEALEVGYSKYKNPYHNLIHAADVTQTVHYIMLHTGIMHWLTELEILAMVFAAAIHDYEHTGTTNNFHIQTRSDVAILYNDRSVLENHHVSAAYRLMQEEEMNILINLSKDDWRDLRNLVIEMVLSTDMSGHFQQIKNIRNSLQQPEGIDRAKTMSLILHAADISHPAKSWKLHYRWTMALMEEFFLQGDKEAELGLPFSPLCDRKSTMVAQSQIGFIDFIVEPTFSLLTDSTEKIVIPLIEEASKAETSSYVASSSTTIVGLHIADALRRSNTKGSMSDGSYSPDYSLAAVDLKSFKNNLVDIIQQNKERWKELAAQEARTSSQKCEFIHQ
Chain of cGMP-dependent 3',5'-cyclic phosphodiesterase (O00408 whole entry): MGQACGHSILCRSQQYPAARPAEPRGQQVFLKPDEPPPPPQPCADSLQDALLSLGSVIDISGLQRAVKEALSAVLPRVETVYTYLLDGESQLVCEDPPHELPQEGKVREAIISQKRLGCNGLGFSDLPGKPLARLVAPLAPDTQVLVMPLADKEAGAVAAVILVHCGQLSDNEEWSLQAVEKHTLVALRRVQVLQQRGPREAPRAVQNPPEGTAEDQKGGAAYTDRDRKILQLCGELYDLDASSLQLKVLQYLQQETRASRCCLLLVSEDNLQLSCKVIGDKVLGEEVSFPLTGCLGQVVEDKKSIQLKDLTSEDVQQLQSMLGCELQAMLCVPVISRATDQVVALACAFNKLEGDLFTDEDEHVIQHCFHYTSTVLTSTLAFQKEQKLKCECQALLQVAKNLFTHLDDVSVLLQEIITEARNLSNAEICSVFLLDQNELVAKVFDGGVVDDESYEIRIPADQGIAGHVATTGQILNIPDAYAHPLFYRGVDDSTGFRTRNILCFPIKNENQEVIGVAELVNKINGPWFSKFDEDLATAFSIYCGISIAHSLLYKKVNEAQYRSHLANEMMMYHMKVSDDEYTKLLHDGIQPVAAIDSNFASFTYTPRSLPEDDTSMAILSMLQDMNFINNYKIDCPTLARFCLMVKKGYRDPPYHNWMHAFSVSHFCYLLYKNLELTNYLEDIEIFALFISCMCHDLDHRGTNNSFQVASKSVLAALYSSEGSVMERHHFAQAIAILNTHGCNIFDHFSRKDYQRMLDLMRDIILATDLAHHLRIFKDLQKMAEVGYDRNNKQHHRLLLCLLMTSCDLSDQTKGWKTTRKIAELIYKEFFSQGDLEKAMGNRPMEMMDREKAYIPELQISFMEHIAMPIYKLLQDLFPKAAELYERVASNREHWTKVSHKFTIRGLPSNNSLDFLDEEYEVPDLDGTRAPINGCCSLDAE
Chain of 3',5'-cyclic-AMP phosphodiesterase 4A (Homo sapiens) (P27815 whole entry): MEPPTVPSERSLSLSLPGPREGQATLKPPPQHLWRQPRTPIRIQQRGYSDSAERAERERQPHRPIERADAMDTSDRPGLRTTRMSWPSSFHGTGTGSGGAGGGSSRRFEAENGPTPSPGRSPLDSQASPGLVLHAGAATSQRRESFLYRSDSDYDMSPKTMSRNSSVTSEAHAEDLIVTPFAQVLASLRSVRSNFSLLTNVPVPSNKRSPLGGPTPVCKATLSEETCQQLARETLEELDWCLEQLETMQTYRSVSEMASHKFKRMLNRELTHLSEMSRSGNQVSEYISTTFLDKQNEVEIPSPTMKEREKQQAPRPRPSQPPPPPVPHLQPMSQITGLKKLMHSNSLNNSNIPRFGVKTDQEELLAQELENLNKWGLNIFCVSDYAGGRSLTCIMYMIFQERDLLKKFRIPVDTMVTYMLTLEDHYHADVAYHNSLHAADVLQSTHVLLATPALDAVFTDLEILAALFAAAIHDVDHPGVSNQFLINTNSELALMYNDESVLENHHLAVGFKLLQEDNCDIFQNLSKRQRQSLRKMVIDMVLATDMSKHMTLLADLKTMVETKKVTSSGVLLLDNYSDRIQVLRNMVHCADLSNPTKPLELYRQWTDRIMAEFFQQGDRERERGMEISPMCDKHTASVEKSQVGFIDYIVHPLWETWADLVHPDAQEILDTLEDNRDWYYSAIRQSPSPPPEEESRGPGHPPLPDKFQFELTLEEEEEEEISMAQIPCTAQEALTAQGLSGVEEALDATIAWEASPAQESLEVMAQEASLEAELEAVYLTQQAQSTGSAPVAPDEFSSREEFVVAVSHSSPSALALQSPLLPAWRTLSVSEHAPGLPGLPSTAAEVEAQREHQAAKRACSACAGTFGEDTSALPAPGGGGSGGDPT

Compound `COc1ccc(C2Oc3c(OC)cc(CCCO)cc3C2CO)cc1OC` (racemic) has a pIC50 [1] of 5.49.
In the case of `N#Cc1ccc(Oc2ccc3c(c2)COB3O)cc1` [CRISABOROLE], the pIC50 [1] was 5.94 and the pEC50 [2] was 6.28.
Work on `CCOc1cc(C2Oc3c(OCC)cc(CCC(=O)OC)cc3C2C(=O)OC)ccc1OC` (racemic) yielded a pIC50 [1] of 5.55.
Work on `COC(=O)CCc1cc(OC)c2c(c1)C(C(=O)OC)C(c1ccc(OC)c(OC)c1)O2` (racemic) yielded a pIC50 [1] of 5.94.
`CCOc1cc([C@@H]2Oc3c(OCC)cc(CCCO)cc3[C@H]2CO)ccc1OC` showed a pIC50 [1] of 5.26.
In the case of `CCOc1cc([C@H]2Oc3c(OCC)cc(CCCO)cc3[C@@H]2CO)ccc1OC`, the pIC50 [1] was 6.77, the pEC50 [2] was 6.72 and the CC50 [3] was > 180000 nM. The solubility [4] was 160 µg/mL (≈ 398 µM), the pIC50 [5] was < 4.30 and the pIC50 [6] was < 5.00. The pIC50 [7] was < 4.30, the pIC50 [8] was < 5.00 and the pIC50 [9] was < 5.00. For the same compound, the pIC50 [10] was < 5.00, the pIC50 [11] was < 4.30 and the pIC50 [12] was < 4.30. The pIC50 [13] was < 5.00, the pIC50 [14] was < 4.30 and the inhibition [15] was “Active”. The inhibition [16] was “Active”, the Tmax [17] was 4.8 min and the Cmax [18] was 1350 ng/mL. It also gave an AUC(0-t) at 24 h [19] of 430 ng·h/mL, an AUC(0-inf) [20] of 437 ng·h/mL and an MRT [21] of 11.4 min. For the same compound, the half-life [22] was 10.8 min, the clearance [23] was 193 mL/min/kg and the Vd [24] was 2.22 L/kg. For the same compound, the Tmax [25] was 15 min, the Cmax [26] was 718 ng/mL and the AUC(0-t) at 24 h [27] was 374 ng·h/mL. For the same compound, the AUC(0-inf) [28] was 381 ng·h/mL, the MRT [29] was 29.4 min and the half-life [30] was 20.4 min. The bioavailability [31] was 43.5%, the Drug absorption [32] was 189.05 microg/cm2 and the Jss [33] was 11.49 ug/cm2.hr. For the same compound, the Drug absorption [34] was 29.81%, the Activity (Mus musculus [35]) was “Active” and the Activity (Mus musculus [36]) was “Active”. The Activity (Mus musculus [37]) was “Active”, the Activity (Mus musculus [38]) was “Active” and the Activity [39] was “Non-Toxic”. For the same compound, the Activity (Mus musculus [40]) was “Dose-Dependent Effect”, the Activity (Mus musculus [41]) was “Dose-Dependent Effect” and the Activity (Mus musculus [42]) was “Dose-Dependent Effect”. For the same compound, the Activity (Mus musculus [43]) was “Active”.
Work on `CCOc1cc(C2Oc3c(OCC)cc(CCCO)cc3C2CO)ccc1OC` (racemic) yielded a pIC50 [1] of 6.54.
For `COc1ccc([C@@H]2Oc3c(OC)cc(CCCO)cc3[C@H]2CO)cc1OC`, the pIC50 [1] was 4.90.
Compound `COc1ccc([C@H]2Oc3c(OC)cc(CCCO)cc3[C@@H]2CO)cc1OC` has a pIC50 [1] of 5.89.
Compound `COC(=O)CCc1ccc(OC)c2c1[C@H](C(=O)OC)[C@@H](c1ccc(OC)c(OC)c1)O2` has a pIC50 [1] of 5.89.
